Measured values from patent EP3262942A1, “SELENODIARYLS FOR USE AS MICROBICIDE OR AS MEDICINE” (Evonik Degussa GmbH, priority 2016, dated 2018).

Key:
Paecilomyces variotii = test: Growth test in microtiter plates, HA medium, 24 h, visual evaluation; format: cell-based; set-up: key: +: kein Wachstum im Vergleich zur Wachstumskontrolle; -: Wachstum wie Wachstumskontrolle
Penicillium notatum = test: as above; format: cell-based; set-up: key: +: kein Wachstum im Vergleich zur Wachstumskontrolle; -: Wachstum wie Wachstumskontrolle
M. grisea = format: cell-based, Magnaporthe grisea; conditions: medium (H2O or CM) not stated
Candida albicans = test: Growth test in microtiter plates, HA medium, 24 h, visual evaluation; format: cell-based; set-up: key: +: kein Wachstum im Vergleich zur Wachstumskontrolle; -: Wachstum wie Wachstumskontrolle
P. infestans = test: microbe, parasite or virus in culture; format: cell-based, Phytophthora infestans; conditions: Phytophthora infestans, 24 h, read-out: Aktivität gegenüber P. infestans
M. grisea CM = test: microbe, parasite or virus in culture; format: cell-based, Magnaporthe grisea; conditions: Pyricularia grisea, 24 h, read-out: Aktivität gegenüber M. grisea CM
Lepidium sativum = test: Crop plant growth test, seeds on filter discs, 4 days, visual evaluation; format: in vivo
Outline: (§1)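 Compounds dried from DMSO onto filter discs; about 12 seeds per well with 200 µl sterile tap water, incubated 4 days in a humid chamber under 16 h light/8 h dark. Visual scoring: + means at least 75 % growth inhibition versus control, − means less than 75 %.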

Setaria italica = test: as above; format: in vivo
Outline: as §1

Mucor miehei = test: Growth test in microtiter plates, HA medium, 24 h, visual evaluation; format: cell-based; set-up: key to Aktivität gegenüber M. miehei: +: kein Wachstum im Vergleich zur Wachstumskontrolle; -: Wachstum wie Wachstumskontrolle
M. grisea H2O = test: microbe, parasite or virus in culture; format: cell-based, Magnaporthe grisea; conditions: Pyricularia grisea, H2O, 24 h, read-out: Aktivität gegenüber M. grisea H2O
Botrytis cinerea = test: microbe, parasite or virus in culture; format: cell-based; conditions: Botrytis cinerea, 24 h, read-out: Aktivität gegenüber B. cinerea

Cc1cc(C(C)(C)C)cc([Se]c2cc(C(C)(C)C)cc(C)c2O)c1O [Verbindung 13, Di(5-tert-butyl-2-hydroxy-3-methylphenyl)selen]
Aktivität gegenüber P. variotii (Paecilomyces variotii; 10µg/mL): - | Aktivität gegenüber P. variotii (Paecilomyces variotii; 50µg/mL): - | Aktivität gegenüber P. notatum (Penicillium notatum; 10µg/mL): - | Aktivität gegenüber P. notatum (Penicillium notatum; 50µg/mL): - | Aktivität gegenüber M. grisea (M. grisea): hohe Aktivität | Aktivität gegenüber C. albicans (Candida albicans; 10µg/mL): - | Aktivität gegenüber C. albicans (Candida albicans; 50µg/mL): - | inhibition of growth at 5 µg/mL (P. infestans): 0 to 25% | inhibition of growth at 10 µg/mL (P. infestans): 0 to 25% | inhibition of growth at 25 µg/mL (P. infestans): 0 to 25% | inhibition of growth at 50 µg/mL (P. infestans): 0 to 25% | inhibition of growth at 5 µg/mL (M. grisea CM): > 75% | inhibition of growth at 10 µg/mL (M. grisea CM): > 75% | inhibition of growth at 25 µg/mL (M. grisea CM): > 75% | inhibition of growth at 50 µg/mL (M. grisea CM): > 75% | Aktivität gegenüber Nutzpflanzen: L. sativum (Lepidium sativum; 10µg/R): - (weniger als 75 % Wachstumshemmung im Vergleich zur Kontrolle) | Aktivität gegenüber Nutzpflanzen: L. sativum (Lepidium sativum; 20µg/R): - (weniger als 75 % Wachstumshemmung im Vergleich zur Kontrolle) | Aktivität gegenüber Nutzpflanzen: L. sativum (Lepidium sativum; 50µg/R): - (weniger als 75 % Wachstumshemmung im Vergleich zur Kontrolle) | Aktivität gegenüber Nutzpflanzen: S. italica (Setaria italica; 10µg/R): - (weniger als 75 % Wachstumshemmung im Vergleich zur Kontrolle) | Aktivität gegenüber Nutzpflanzen: S. italica (Setaria italica; 20µg/R): - (weniger als 75 % Wachstumshemmung im Vergleich zur Kontrolle) | Aktivität gegenüber Nutzpflanzen: S. italica (Setaria italica; 50µg/R): - (weniger als 75 % Wachstumshemmung im Vergleich zur Kontrolle) | Aktivität gegenüber M. miehei (Mucor miehei; 10µg/mL): - | Aktivität gegenüber M. miehei (Mucor miehei; 50µg/mL): - | inhibition of growth at 5 µg/mL (M. grisea H2O): > 75% | inhibition of growth at 10 µg/mL (M. grisea H2O): > 75% | inhibition of growth at 25 µg/mL (M. grisea H2O): > 75% | inhibition of growth at 50 µg/mL (M. grisea H2O): > 75% | inhibition of growth at 5 µg/mL (Botrytis cinerea; 5µg/mL): 0 to 25% | inhibition of growth at 10 µg/mL (Botrytis cinerea; 10µg/mL): 0 to 25% | inhibition of growth at 25 µg/mL (Botrytis cinerea; 25µg/mL): 0 to 25% | inhibition of growth at 50 µg/mL (Botrytis cinerea; 50µg/mL): 0 to 25%
